Assay results reported in ChEMBL document CHEMBL3872245, “A novel curcumin derivative which inhibits P-glycoprotein, arrests cell cycle and induces apoptosis in multidrug resistance cells” (Bioorg Med Chem, 2017).
Activity calls are given as the source filed them. No cut-off for these calls is given here.

Legend:
[1] = Antiproliferative activity against human NCI-H460 cells measured after 48 hrs by sulforhodamine B assay; type: functional; settings: NCI-H460, 48 h
H460 = assay: Inhibition of P-gp in drug resistant human H460 cells assessed as reduction in cell viability measured after 48 hrs by sulforhodamine B assay; type: cell-based
[2] = Antiproliferative activity against human K562 cells measured after 48 hrs by Presto blue assay; type: functional; settings: K562, 48 h
K562 [3] = assay: Inhibition of P-gp in doxorubicin resistant human K562 cells assessed as reduction in cell viability measured after 48 hrs by Presto blue assay; type: cell-based
[4] = Chemical stability of the compound in pH 6.7 potassium phosphate buffer at 10^-4 M incubated for overnight by HPLC method; type: physicochemical; settings: pH 6.7, 100 µM
[5] = Chemical stability of the compound in pH 9.1 sodium boric acid buffer at 10^-4 M incubated for overnight by HPLC method; type: physicochemical; settings: pH 9.1, 100 µM
[6] = Chemical stability of the compound in pH 5 sodium acetate buffer at 10^-4 M incubated for overnight by HPLC method; type: physicochemical; settings: pH 5, 100 µM
[7] = Chemical stability of the compound in pH 7.4 phosphate buffered saline at 10^-4 M incubated for overnight by HPLC method; type: physicochemical; settings: buffer, pH 7.4, 100 µM
[8] = Chemical stability of the compound in pH 1 HCl buffer at 10^-4 M incubated for 75 mins by HPLC method; type: physicochemical; settings: pH 1, 1.25 h, 100 µM
[9] = Stability of the compound in RPMI medium at 1.5 10^-3 M incubated for 5 to 30 mins under dark condition by HPLC method; type: physicochemical
[10] = Stability of the compound at -20 degreeC at 10^-4 M incubated for 6 to 12 days under dark condition by HPLC method; type: physicochemical; settings: 100 µM
[11] = Stability of the compound at 4 degreeC at 10^-4 M incubated for 6 to 12 days under dark condition by HPLC method; type: physicochemical; settings: 100 µM
[12] = Stability of the compound at room temperature at 10^-4 M incubated for 6 to 12 days under dark condition by HPLC method; type: physicochemical; settings: 100 µM
[13] = Stability of the compound in HEPES medium at 1.5 10^-3 M incubated for 5 to 30 mins under dark condition by HPLC method; type: physicochemical
K562 [14] = assay: Inhibition of P-gp in doxorubicin resistant human K562 cells assessed as reduction in cell viability measured after 48 hrs by SRB assay; type: cell-based
K562 [15] = assay: Induction of apoptosis in doxorubicin resistant human K562 cells decrease in pro-caspase 3 level at 20 to 40 uM measured after 48 hrs by Western blot method; type: functional, cell-based
[16] = Down regulation of p-gp expression in doxorubicin resistant human K562 cells at 20 to 30 uM measured after 48 hrs by Western blot method; type: functional, cell-based
[17] = Cell cycle arrest in doxorubicin resistant human K562 cells assessed as increase in G2/M phase at 20 uM measured after 48 hrs by propidium iodide staining based flow cytometry; type: functional
[18] = Cell cycle arrest in doxorubicin resistant human K562 cells assessed as decrease in G0/G1 phase at 20 uM measured after 48 hrs by propidium iodide staining based flow cytometry; type: functional
[19] = Cell cycle arrest in doxorubicin resistant human K562 cells assessed as decrease in S phase at 20 uM measured after 48 hrs by propidium iodide staining based flow cytometry; type: functional
[20] = Cell cycle arrest in doxorubicin resistant human K562 cells assessed as accumulation at G0/G1 phase at 30 to 40 uM measured after 48 hrs by propidium iodide staining based flow cytometry; type: functional
[21] = Cell cycle arrest in doxorubicin resistant human K562 cells assessed as decrease in G2/M phase at 30 to 40 uM measured after 48 hrs by propidium iodide staining based flow cytometry; type: functional
K562 [22] = assay: Induction of apoptosis in doxorubicin resistant human K562 cells at 20 uM by Annexin V-FITC/propidium iodide staining based flow cytometry; type: functional
K562 [23] = assay: Induction of apoptosis in doxorubicin resistant human K562 cells at 30 uM by Annexin V-FITC/propidium iodide staining based flow cytometry; type: functional
K562 [24] = assay: Induction of apoptosis in doxorubicin resistant human K562 cells at 40 uM by Annexin V-FITC/propidium iodide staining based flow cytometry; type: functional
[25] = Up regulation of p53 expression in doxorubicin resistant human K562 cells at 20 to 40 uM measured after 48 hrs by Western blot method; type: functional, cell-based
[26] = Down regulation of cyclin B1 expression in doxorubicin resistant human K562 cells at 20 to 40 uM measured after 48 hrs by Western blot method; type: functional, cell-based
K562 [27] = assay: Induction of apoptosis in doxorubicin resistant human K562 cells assessed as increase in PARP-1 cleavage at 20 to 40 uM measured after 48 hrs by Western blot method; type: functional, cell-based
K562 [28] = assay: Inhibition of P-gp in doxorubicin resistant human K562 cells assessed as increase in accumulation of rhodamine 123 at 10 uM measured after 1 hr by flow cytometry; type: cell-based
K562 [29] = assay: Induction of apoptosis in doxorubicin resistant human K562 cells assessed as decrease in pro-caspase 3 level at 2.7 to 5.4 uM measured after 48 hrs by Western blot method; type: functional, cell-based
[30] = Down regulation of p-gp expression in doxorubicin resistant human K562 cells at 2.7 to 4.1 uM measured after 48 hrs by Western blot method; type: functional, cell-based
[31] = Cell cycle arrest in doxorubicin resistant human K562 cells assessed as increase in G2/M phase at 2.7 uM measured after 48 hrs by propidium iodide staining based flow cytometry; type: functional
[32] = Cell cycle arrest in doxorubicin resistant human K562 cells assessed as decrease in G0/G1 phase at 2.7 uM measured after 48 hrs by propidium iodide staining based flow cytometry; type: functional
[33] = Cell cycle arrest in doxorubicin resistant human K562 cells assessed as decrease in S phase at 2.7 uM measured after 48 hrs by propidium iodide staining based flow cytometry; type: functional
[34] = Cell cycle arrest in doxorubicin resistant human K562 cells assessed as accumulation at G2/M phase at 4.1 to 5.4 uM measured after 48 hrs by propidium iodide staining based flow cytometry; type: functional
K562 [35] = assay: Induction of apoptosis in doxorubicin resistant human K562 cells at 2.7 uM by Annexin V-FITC/propidium iodide staining based flow cytometry; type: functional
K562 [36] = assay: Induction of apoptosis in doxorubicin resistant human K562 cells at 4.1 uM by Annexin V-FITC/propidium iodide staining based flow cytometry; type: functional
K562 [37] = assay: Induction of apoptosis in doxorubicin resistant human K562 cells at 5.4 uM by Annexin V-FITC/propidium iodide staining based flow cytometry; type: functional
[38] = Up regulation of p53 expression in doxorubicin resistant human K562 cells at 2.7 to 5.4 uM measured after 48 hrs by Western blot method; type: functional, cell-based
[39] = Down regulation of cyclin B1 expression in doxorubicin resistant human K562 cells at 2.7 to 5.4 uM measured after 48 hrs by Western blot method; type: functional, cell-based
K562 [40] = assay: Induction of apoptosis in doxorubicin resistant human K562 cells assessed as increase in PARP-1 cleavage at 2.7 to 5.4 uM measured after 48 hrs by Western blot method; type: functional, cell-based

| Compound | GI50 [1] | GI50 (H460) | GI50 [2] | GI50 (K562 [3]) | Stability [4] | Stability [5] | Stability [6] | Stability [7] | Stability [8] | Stability [9] | Stability [10] | Stability [11] | Stability [12] | Stability [13] | other results |
| --- | --- | --- | --- | --- | --- | --- | --- | --- | --- | --- | --- | --- | --- | --- | --- |
| COc1cc(/C=C/C(=O)CC(=O)/C=C/c2ccc(OCc3cn(CCO[C@@H]4O[C@H](COC(C)=O)[C@H](OC(C)=O)[C@H](OC(C)=O)[C@H]4NC(C)=O)nn3)c(OC)c2)ccc1OCc1cn(CCO[C@@H]2O[C@H](COC(C)=O)[C@H](OC(C)=O)[C@H](OC(C)=O)[C@H]2NC(C)=O)nn1 | > 150 µM | > 150 µM | > 150 µM | > 150 µM | – | – | – | – | – | – | – | – | – | – | – |
| COc1cc(/C=C/C(C)=O)ccc1O [DEHYDROZINGERONE] | 64.8 µM | 62.7 µM | 85.3 µM | 92 µM | Stable | Stable | Stable | Stable | Stable | Stable | Stable | Stable | Stable | Stable | – |
| C=CCOc1ccc(/C=C/C(C)=O)cc1OC | 41.5 µM | 39.3 µM | 68.7 µM | 63.3 µM | – | – | – | – | – | – | – | – | – | – | – |
| COc1cccc2c1C(=O)c1c(O)c3c(c(O)c1C2=O)C[C@@](O)(C(=O)CO)C[C@@H]3O[C@H]1C[C@H](N)[C@H](O)[C@H](C)O1 [DOXORUBICIN] | 0.02 µM | > 0.15 µM | 0.065 µM | > 0.15 µM | – | – | – | – | – | – | – | – | – | – | GI50 (K562 [14]): 11.6 µM |
| COc1cc(/C=C/C(C)=O)ccc1OCc1cn(CCO[C@@H]2O[C@H](COC(C)=O)[C@H](OC(C)=O)[C@H](OC(C)=O)[C@H]2NC(C)=O)nn1 | > 150 µM | > 150 µM | > 150 µM | > 150 µM | – | – | – | – | – | – | – | – | – | – | – |
| COc1cc(/C=C/C(=O)CC(=O)/C=C/c2ccc(O)c(OC)c2)ccc1O [CURCUMIN] | 27.3 µM | 26 µM | 21.7 µM | 19.7 µM | Unstable | Unstable | Unstable | Unstable | Unstable | Stable | Stable | Stable | Stable | Stable | Activity (K562 [15]): Active; Activity [16]: Active; Activity [17]: Active; Activity [18]: Active; Activity [19]: Active; Activity [20]: Active; Activity [21]: Active; Activity (K562 [22]): 11.8%; Activity (K562 [23]): 26.9%; Activity (K562 [24]): 32%; Activity [25]: Active; Activity [26]: Active; Activity (K562 [27]): Active |
| COc1cc(/C=C/C(C)=O)ccc1OCCCNC(=O)OC(C)(C)C | 55.2 µM | 41 µM | > 150 µM | > 150 µM | – | – | – | – | – | – | – | – | – | – | inhibition (K562 [28]): Active |
| C#CCOc1ccc(/C=C/C(C)=O)cc1OC | 52.7 µM | 41.7 µM | > 150 µM | 133 µM | – | – | – | – | – | – | – | – | – | – | – |
| COc1ccc(CCN(C)CCCC(C#N)(c2ccc(OC)c(OC)c2)C(C)C)cc1OC (stereo not drawn) | – | – | – | – | – | – | – | – | – | – | – | – | – | – | inhibition (K562 [28]): Active |
| C#CCOc1ccc(/C=C/C(=O)CC(=O)/C=C/c2ccc(OCC#C)c(OC)c2)cc1OC | 3.4 µM | 2.6 µM | 6.3 µM | 2.73 µM | Stable | Stable | Stable | Stable | Stable | Stable | Stable | Stable | Stable | Stable | Activity (K562 [29]): Active; inhibition (K562 [28]): Active; Activity [30]: Active; Activity [31]: Active; Activity [32]: Active; Activity [33]: Active; Activity [34]: Active; Activity (K562 [35]): 9.3%; Activity (K562 [36]): 11.3%; Activity (K562 [37]): 14.8%; Activity [38]: Active; Activity [39]: Active; Activity (K562 [40]): Active |
| COc1cc(/C=C/C(=O)/C=C/c2ccc(O)c(OC)c2)ccc1O | 1.47 µM | 1.8 µM | 9.33 µM | 20.7 µM | Stable | Stable | Stable | Stable | Stable | Stable | Unstable | Unstable | Unstable | Stable | – |
| COC(=O)COc1ccc(/C=C/C(C)=O)cc1OC | > 150 µM | > 150 µM | > 150 µM | > 150 µM | – | – | – | – | – | – | – | – | – | – | – |
